Measurements taken from US10781204B2, “TYK2 inhibitors and uses thereof” (Nimbus Lakshmi, Inc., priority 2015, dated 2020).

Experiments:
TYK2 = TYK2 (Homo sapiens (Human), UniProt P29597); test: Tyk2 radioactive kinase assay; assay type: biochemical; conditions: ATP 10 μM
Procedure, shortened: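 Recombinant human TYK2 (Invitrogen) was mixed with 20 μM peptide substrate in a buffer of 20 mM Hepes pH 7.5, 10 mM MgCl2, 1 mM EGTA, 0.02% Brij35, 0.02 mg/mL BSA, 0.1 mM […], 2 mM DTT and 1% DMSO, and compounds in DMSO were added. Adding ^33P-ATP (10 μM ATP) started the reaction, which ran 120 min at room temperature. Mixtures were then spotted onto P81 ion-exchange paper, washed thoroughly in 0.75% phosphoric acid, and counted for radioactivity.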

[1] = tested on: JAK2-pSTAT5 (GM-CSF induced pSTAT5); test: GM-CSF induced pSTAT5 in human PBMC; assay type: cell-based; conditions: 5 ng/mL GM-CSF
Procedure, shortened: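 Thawed human PBMC, 200,000 per well in serum-containing medium, were preincubated 1 hr at 37 C with compound in 0.1% DMSO. GM-CSF at 5 ng/mL final was added for 20 minutes, then pSTAT5 and total STAT5 in lysates were measured by MSD immunoassay.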

[2] = tested on: Tyk2-pSTAT4 (IL-12 induced pSTAT4); test: IL-12 induced pSTAT4 in human PBMC; assay type: cell-based; conditions: 1.7 ng/mL IL-12, 30 minutes
Procedure, shortened: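 Thawed human PBMC (200,000 cells/well, serum-containing medium) preincubated with compound 1 hr at 37 C, 0.1% DMSO final. Stimulated with 1.7 ng/mL IL-12 (final) for 30 minutes; pSTAT4 and total STAT4 in lysates measured by MSD immunoassay.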

JAK2 = JAK2 (Homo sapiens (Human), UniProt O60674); test: JAK2 radioactive kinase assay; assay type: biochemical; conditions: ATP 10 μM
Procedure, shortened: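 Radiometric assay in Hepes pH 7.5, MgCl2, EGTA, Brij35, BSA, DTT, 1% DMSO, with 10 μM [33P]ATP, 120 min at room temp; P81 paper capture and counting. […]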

JAK2, sequence (O60674 whole entry): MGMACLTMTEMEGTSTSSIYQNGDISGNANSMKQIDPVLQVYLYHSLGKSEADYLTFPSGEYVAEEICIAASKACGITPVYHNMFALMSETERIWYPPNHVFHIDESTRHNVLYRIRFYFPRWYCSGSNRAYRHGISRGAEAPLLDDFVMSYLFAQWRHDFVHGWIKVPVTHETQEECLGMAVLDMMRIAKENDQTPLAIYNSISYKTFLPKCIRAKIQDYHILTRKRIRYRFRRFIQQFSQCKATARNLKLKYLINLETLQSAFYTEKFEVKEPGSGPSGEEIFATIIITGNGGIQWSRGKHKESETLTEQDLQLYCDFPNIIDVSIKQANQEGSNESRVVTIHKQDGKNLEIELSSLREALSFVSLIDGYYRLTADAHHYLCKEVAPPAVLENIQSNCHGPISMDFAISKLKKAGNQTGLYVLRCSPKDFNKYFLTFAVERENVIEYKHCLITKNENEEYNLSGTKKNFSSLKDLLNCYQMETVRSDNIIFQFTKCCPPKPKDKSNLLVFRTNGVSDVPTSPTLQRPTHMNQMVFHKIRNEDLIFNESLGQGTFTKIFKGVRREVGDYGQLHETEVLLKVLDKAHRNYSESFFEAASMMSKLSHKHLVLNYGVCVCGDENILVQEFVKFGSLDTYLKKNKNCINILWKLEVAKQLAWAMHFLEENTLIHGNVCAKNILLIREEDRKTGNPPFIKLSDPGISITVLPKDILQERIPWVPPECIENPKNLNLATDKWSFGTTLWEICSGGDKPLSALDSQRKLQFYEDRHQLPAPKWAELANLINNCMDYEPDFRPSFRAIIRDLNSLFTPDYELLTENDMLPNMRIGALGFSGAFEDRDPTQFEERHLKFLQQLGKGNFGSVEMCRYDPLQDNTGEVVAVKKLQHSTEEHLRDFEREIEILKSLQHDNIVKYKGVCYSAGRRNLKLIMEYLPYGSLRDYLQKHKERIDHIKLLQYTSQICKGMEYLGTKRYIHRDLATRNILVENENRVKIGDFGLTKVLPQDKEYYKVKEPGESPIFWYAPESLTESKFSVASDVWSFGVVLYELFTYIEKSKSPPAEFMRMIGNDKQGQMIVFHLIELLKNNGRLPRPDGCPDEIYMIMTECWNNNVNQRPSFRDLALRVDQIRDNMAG
TYK2, sequence (P29597 whole entry): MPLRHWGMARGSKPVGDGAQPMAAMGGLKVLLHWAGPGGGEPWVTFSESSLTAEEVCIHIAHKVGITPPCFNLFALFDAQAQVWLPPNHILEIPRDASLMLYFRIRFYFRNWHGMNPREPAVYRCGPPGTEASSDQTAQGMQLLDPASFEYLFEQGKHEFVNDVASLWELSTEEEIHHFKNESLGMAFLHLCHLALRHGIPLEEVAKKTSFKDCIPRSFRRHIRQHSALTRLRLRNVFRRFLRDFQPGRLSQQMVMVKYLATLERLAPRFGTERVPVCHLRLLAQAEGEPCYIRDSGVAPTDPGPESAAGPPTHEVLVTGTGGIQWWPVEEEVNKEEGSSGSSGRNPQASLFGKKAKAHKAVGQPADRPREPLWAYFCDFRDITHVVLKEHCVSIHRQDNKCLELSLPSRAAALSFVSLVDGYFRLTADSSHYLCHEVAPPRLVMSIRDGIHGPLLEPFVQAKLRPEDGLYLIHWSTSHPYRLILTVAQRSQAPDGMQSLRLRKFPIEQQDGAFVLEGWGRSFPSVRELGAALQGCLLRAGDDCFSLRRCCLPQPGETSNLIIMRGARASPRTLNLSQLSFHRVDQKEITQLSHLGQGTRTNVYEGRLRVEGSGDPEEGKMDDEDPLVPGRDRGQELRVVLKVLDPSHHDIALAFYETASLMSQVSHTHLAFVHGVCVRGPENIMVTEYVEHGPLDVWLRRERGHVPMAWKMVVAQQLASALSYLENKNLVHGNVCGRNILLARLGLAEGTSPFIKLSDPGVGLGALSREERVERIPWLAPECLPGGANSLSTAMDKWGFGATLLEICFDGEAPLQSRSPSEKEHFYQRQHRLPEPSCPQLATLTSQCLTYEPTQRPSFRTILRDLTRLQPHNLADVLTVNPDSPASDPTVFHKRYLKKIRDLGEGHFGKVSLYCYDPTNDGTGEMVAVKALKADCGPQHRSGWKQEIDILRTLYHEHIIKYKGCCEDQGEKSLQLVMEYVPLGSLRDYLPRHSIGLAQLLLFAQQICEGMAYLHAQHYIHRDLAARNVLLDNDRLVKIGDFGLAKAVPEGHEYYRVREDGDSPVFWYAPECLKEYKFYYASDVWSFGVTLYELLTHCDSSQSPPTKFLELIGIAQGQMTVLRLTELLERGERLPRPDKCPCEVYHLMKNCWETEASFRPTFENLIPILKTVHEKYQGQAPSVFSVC

Compound | Ki (TYK2) [nM] | EC50 ([1]; Homo sapiens, PBMC, 20 min) [nM] | EC50 ([2]; Homo sapiens, PBMC, 0.5 h) [nM] | Ki (JAK2) [nM] | EC50 ([1]; 20 minutes) [nM] | EC50 [2] [nM]
CCNC(=O)[C@H]1CCCN(c2ccn(-c3cc(-c4c(F)cccc4C#N)nc4c3C(=O)NC4)n2)C1 [I-171, (S)-1-(1-(2-(2-cyano-6-fluorophenyl)-5-oxo-6,7-dihydro-5H-pyrrolo[3,4-b]pyridin-4-yl)-1H-pyrazol-3-yl)-N-ethylpiperidine-3-carboxamide] | 0.1 to 10 | > 2000 | 100 to 2000 | 10 to 100 | – | –
CO[C@@H]1CCN(c2ccn(-c3cc(-c4c(F)cccc4C#N)nc4c3C(=O)NC4)n2)C[C@H]1O [I-193, 3-fluoro-2-(4-(3-((3R,4R)-3-hydroxy-4-methoxypiperidin-1-yl)-1H-pyrazol-1-yl)-5-oxo-6,7-dihydro-5H-pyrrolo[3,4-b]pyridin-2-yl)benzonitrile] | 0.1 to 10 | > 2000 | 100 to 2000 | 0.1 to 10 | – | –
CO[C@H]1CN(c2ccn(-c3cc(-c4c(F)cccc4C#N)nc4c3C(=O)NC4)n2)C[C@@]1(C)O [I-226, 3-fluoro-2-(4-(3-((3R,4S)-3-hydroxy-4-methoxy-3-methyl-pyrrolidin-1-yl)-1H-pyrazol-1-yl)-5-oxo-6,7-dihydro-5H-pyrrolo[3,4-b]pyridin-2-yl)benzonitrile] | 0.1 to 10 | 100 to 2000 | 30 to 100 | 0.1 to 10 | – | –
[2H]C1([2H])NC(=O)c2c(-n3ccc(N4C([2H])([2H])CC(O)(C([2H])([2H])[2H])C4([2H])[2H])n3)cc(-c3c(F)cccc3C#N)nc21 (stereo not drawn) [I-200, 3-fluoro-2-(4-(3-(3-hydroxy-3-(methyl-d3)pyrrolidin-1-yl-2,2,5,5-d4)-1H-pyrazol-1-yl)-5-oxo-6,7-dihydro-5H-pyrrolo[3,4-b]pyridin-2-yl-7,7-d2)benzonitrile] | 0.1 to 10 | 100 to 2000 | 30 to 100 | 10 to 100 | – | –
CC(=O)Nc1cnn(-c2cc(-c3c(F)cccc3C#N)nc3c2C(=O)NC3)c1 [I-177, N-(1-(2-(2-cyano-6-fluorophenyl)-5-oxo-6,7-dihydro-5H-pyrrolo[3,4-b]pyridin-4-yl)-1H-pyrazol-4-yl)acetamide] | ≥ 1000 | 100 to 2000 | > 2000 | ≥ 1000 | – | –
N#Cc1cccc(F)c1-c1cc(-n2ccc(N3CC[C@@]4(CCNC4=O)C3)n2)c2c(n1)CNC2=O [I-166, (S)-3-fluoro-2-(5-oxo-4-(3-(6-oxo-2,7-diazaspiro[4.4]nonan-2-yl)-1H-pyrazol-1-yl)-6,7-dihydro-5H-pyrrolo[3,4-b]pyridin-2-yl)benzonitrile] | 0.009 to 0.1 | 100 to 2000 | 100 to 2000 | 0.1 to 10 | – | –
C[C@H]1CC[C@H](O)CN1c1ccn(-c2cc(-c3c(F)cccc3C#N)nc3c2C(=O)NC3)n1 [I-112, 3-fluoro-2-(4-(3-((2S,5S)-5-hydroxy-2-methylpiperidin-1-yl)-1H-pyrazol-1-yl)-5-oxo-6,7-dihydro-5H-pyrrolo[3,4-b]pyridin-2-yl)benzonitrile] | 0.1 to 10 | 100 to 2000 | 100 to 2000 | 10 to 100 | – | –
[2H]C1([2H])N(c2ccn(-c3cc(-c4c(F)cccc4C#N)nc4c3C(=O)NC4)n2)C([2H])([2H])[C@]([2H])(O)C1([2H])[2H] [I-208, (R)-3-fluoro-2-(4-(3-(3-hydroxypyrrolidin-1-yl-2,2,3,4,4,5,5-d7)-1H-pyrazol-1-yl)-5-oxo-6,7-dihydro-5H-pyrrolo[3,4-b]pyridin-2-yl)benzonitrile] | 0.1 to 10 | > 2000 | 100 to 2000 | 10 to 100 | – | –
N#Cc1cccc(F)c1-c1cc(-n2ccc(N3CC[C@H](C#N)[C@@H](O)C3)n2)c2c(n1)CNC2=O [I-216, (3R,4R)-1-(1-(2-(2-cyano-6-fluorophenyl)-5-oxo-6,7-dihydro-5H-pyrrolo[3,4-b]pyridin-4-yl)-1H-pyrazol-3-yl)-3-hydroxypiperidine-4-carbonitrile] | 0.1 to 10 | – | – | 0.1 to 10 | 100 to 2000 | 30 to 100
N#Cc1cccc(F)c1-c1cc(-n2ccc([C@H]3CCCO3)n2)c2c(n1)CNC2=O [I-103, (R)-3-fluoro-2-(5-oxo-4-(3-(tetrahydrofuran-2-yl)-1H-pyrazol-1-yl)-6,7-dihydro-5H-pyrrolo[3,4-b]pyridin-2-yl)benzonitrile] | 0.1 to 10 | 100 to 2000 | 100 to 2000 | 10 to 100 | – | –
CC1(O)CN(c2ccn(-c3cc(-c4c(F)cccc4C#N)nc4c3C(=O)NC4)n2)CCC1F (stereo not drawn) [I-219, 3-fluoro-2-(4-(3-(4-fluoro-3-hydroxy-3-methylpiperidin-1-yl)-1H-pyrazol-1-yl)-5-oxo-6,7-dihydro-5H-pyrrolo[3,4-b]pyridin-2-yl)benzonitrile] | 0.1 to 10 | 100 to 2000 | 100 to 2000 | 10 to 100 | – | –

Further lines, results first:

Ki (TYK2) [nM] | EC50 ([1]; Homo sapiens, PBMC, 20 min) [nM] | EC50 ([2]; Homo sapiens, PBMC, 0.5 h) [nM] | Ki (JAK2) [nM] | EC50 ([1]; 20 minutes) [nM] | EC50 [2] [nM] | Compound
0.009 to 0.1 | 100 to 2000 | 100 to 2000 | 0.1 to 10 | – | – | N#Cc1cccc(F)c1-c1cc(-n2ccc(N3CCCC(N4CCOCC4)C3)n2)c2c(n1)CNC2=O (stereo not drawn) [I-149, 3-fluoro-2-(4-(3-(3-morpholinopiperidin-1-yl)-1H-pyrazol-1-yl)-5-oxo-6,7-dihydro-5H-pyrrolo[3,4-b]pyridin-2-yl)benzonitrile]
0.1 to 10 | > 2000 | 30 to 100 | 10 to 100 | – | – | N#Cc1cccc(F)c1-c1cc(-n2ccc(N3CCOC[C@@H](O)C3)n2)c2c(n1)CNC2=O [I-131, (S)-3-fluoro-2-(4-(3-(6-hydroxy-1,4-oxazepan-4-yl)-1H-pyrazol-1-yl)-5-oxo-6,7-dihydro-5H-pyrrolo[3,4-b]pyridin-2-yl)benzonitrile]
0.1 to 10 | > 2000 | 100 to 2000 | 10 to 100 | – | – | N#Cc1cccc(F)c1-c1cc(-n2ccc(N3CCC[C@H](N4CCOCC4)C3)n2)c2c(n1)CNC2=O [I-157, (S)-3-fluoro-2-(4-(3-(3-morpholinopiperidin-1-yl)-1H-pyrazol-1-yl)-5-oxo-6,7-dihydro-5H-pyrrolo[3,4-b]pyridin-2-yl)benzonitrile]
0.1 to 10 | 100 to 2000 | 30 to 100 | 10 to 100 | – | – | N#Cc1cccc(F)c1-c1cc(-n2ccc(N3CCC[C@@H](CO)C3)n2)c2c(n1)CNC2=O [I-97, (R)-3-fluoro-2-(4-(3-(3-(hydroxymethyl)piperidin-1-yl)-1H-pyrazol-1-yl)-5-oxo-6,7-dihydro-5H-pyrrolo[3,4-b]pyridin-2-yl)benzonitrile]
0.1 to 10 | 100 to 2000 | 100 to 2000 | 10 to 100 | – | – | N#Cc1cccc(F)c1-c1cc(-n2ccc(N3CCC[C@@H](O)C3)n2)c2c(n1)CNC2=O [I-69, (R)-3-fluoro-2-(4-(3-(3-hydroxypiperidin-1-yl)-1H-pyrazol-1-yl)-5-oxo-6,7-dihydro-5H-pyrrolo[3,4-b]pyridin-2-yl)benzonitrile]
0.1 to 10 | > 2000 | 100 to 2000 | 10 to 100 | – | – | N#Cc1cccc(F)c1-c1cc(-n2ccc(N3CCOCC3)n2)c2c(n1)CNC2=O [I-4, 3-fluoro-2-(4-(3-morpholino-1H-pyrazol-1-yl)-5-oxo-6,7-dihydro-5H-pyrrolo[3,4-b]pyridin-2-yl)benzonitrile]
0.1 to 10 | > 2000 | 100 to 2000 | 0.1 to 10 | – | – | CN1CCN(c2ccn(-c3cc(-c4c(F)cccc4C#N)nc4c3C(=O)NC4)n2)CC1 [I-6, 3-fluoro-2-(4-(3-(4-methylpiperazin-1-yl)-1H-pyrazol-1-yl)-5-oxo-6,7-dihydro-5H-pyrrolo[3,4-b]pyridin-2-yl)benzonitrile]
0.1 to 10 | 100 to 2000 | 30 to 100 | 10 to 100 | – | – | N#Cc1cccc(F)c1-c1cc(-n2ccc(N3CCCC(O)C3)n2)c2c(n1)CNC2=O (stereo not drawn) [I-65, 3-fluoro-2-(4-(3-(3-hydroxypiperidin-1-yl)-1H-pyrazol-1-yl)-5-oxo-6,7-dihydro-5H-pyrrolo[3,4-b]pyridin-2-yl)benzonitrile]
0.1 to 10 | > 2000 | 100 to 2000 | 10 to 100 | – | – | N#Cc1cccc(F)c1-c1cc(-n2ccc(N3CCC[C@H](O)[C@H](O)C3)n2)c2c(n1)CNC2=O [I-178, 2-(4-(3-((3R,4S)-3,4-dihydroxyazepan-1-yl)-1H-pyrazol-1-yl)-5-oxo-6,7-dihydro-5H-pyrrolo[3,4-b]pyridin-2-yl)-3-fluorobenzonitrile]
0.1 to 10 | > 2000 | 30 to 100 | 10 to 100 | – | – | N#Cc1cccc(F)c1-c1cc(-n2ccc(N3CCOCC(O)C3)n2)c2c(n1)CNC2=O (stereo not drawn) [I-121, 3-fluoro-2-(4-(3-(6-hydroxy-1,4-oxazepan-4-yl)-1H-pyrazol-1-yl)-5-oxo-6,7-dihydro-5H-pyrrolo[3,4-b]pyridin-2-yl)benzonitrile]
